According to US20230072854A1, “PARAXANTHINE-BASED BIOACTIVE COMPOSITION AND METHOD OF USE THEREOF” (Ingenious Ingredients, LP, priority 2020, published 2023):

Tested on: volunteers
Assay: Sternberg task test, double blind crossover vs placebo
Format: in vivo, human
Settings: 200 mg; for Sternberg Mean Response Time: in ms (unit assumed)
Excerpt: In a double blind, randomized, crossover, and repeated measures manner, 13 volunteers (10 male, 3 female, average age 24±5 years, average body weight 72.91±19.30 kg, average height 169.96±11.84 cm, average BMI 24.80±3.71 kg/m^2) participated in this study. Participants limited ingestion of caffeine and other stimulants to normal use for 48-hours, fasted for 8-hours and reported to the lab and completed 4 different cognitive function tests to assess short-term attention and inhibitory control (Go-No Go Test), sustained attention (Vigilance Task Test), working memory (Sternberg Task Test) and cognitive flexibility (Berg-Washington Card Sorting Test). Once completed, the participants ingested either a placebo or 200 mg of paraxanthine (WGI, TX, USA) with 8 ounces of water. Participants repeated cognitive function tests 1, 2, 3, 4, 5, and 6 hours after ingestion of the supplement. After one-week participants repeated the experiment while consuming the other treatment.
Data were analyzed by a General Linear Model multivariate and univariate analyses with repeated measures using body weight as a covariate. Data are expressed as means±standard deviations for the placebo (PLA) and Paraxanthine (PrX). Greenhouse-Geisser univariate p-levels are listed for time (T), weight×time (W×T) and group×time (G×T) interactions effects. Pairwise comparison is indicated by the following superscripts: †=[…] difference from baseline value; *=[…] difference from baseline; a=[…] difference between groups; b=[…] difference between groups. Eta2 vaules of […] are considered small, […] medium, and >0.14 are considered large.
A test of working memory, ability to make use of short-term memory. A lower reaction time means participants can access their working memory faster. The Sternberg Task test is a widely used paradigm for studying short-term/working memory (STM/WM) involving cognitive control processes.

Cn1c(=O)[nH]c2ncn(C)c2c1=O [paraxanthine, 1,7-dimethylxanthine]
letter length 4 present reaction time (FIG. 19): no significant differences over time or between treatments, with Paraxanthine showing greater improvements during hours 3-6 | letter length 6 absent reaction time (FIG. 17): no significant differences over time or between treatments, with Paraxanthine showing greater improvement during hours 3-5 | Letter Length 2: Absent Reaction Time (Millisecond) (Mean (SEM) over all hours): 577.6 ± 27.1 Millisecond | Letter Length 2: Present Reaction Time (Millisecond) (Mean (SEM) over all hours): 503.5 ± 17.8 Millisecond | Letter Length 4: Absent Reaction Time (Millisecond) (Mean (SEM) over all hours): 741.3 ± 40.0 Millisecond | Letter Length 4: Present Reaction Time (Millisecond) (Mean (SEM) over all hours): 617.9 ± 25.1 Millisecond | Letter Length 6: Absent Reaction Time (Millisecond) (Mean (SEM) over all hours): 970.0 ± 55.7 Millisecond | Letter Length 6: Present Reaction Time (Millisecond) (Mean (SEM) over all hours): 808.2 ± 40.2 Millisecond | Sternberg Mean Response Time (Mean (SEM) over all hours): 703.1 ± 32.4 | short-term/working memory, letter length 6 present reaction time (after 4 and 5 hours): significantly increased short-term/working memory | Letter Length 2: Absent Reaction Time (Millisecond) (hour 0 (before ingestion)): 621.9 ± 154.3 Millisecond | Letter Length 2: Present Reaction Time (Millisecond) (hour 0 (before ingestion)): 541.1 ± 104.2 Millisecond | Letter Length 4: Absent Reaction Time (Millisecond) (hour 0 (before ingestion)): 748.7 ± 148.5 Millisecond | Letter Length 4: Present Reaction Time (Millisecond) (hour 0 (before ingestion)): 625.9 ± 100.6 Millisecond | Letter Length 6: Absent Reaction Time (Millisecond) (hour 0 (before ingestion)): 1,012.5 ± 334.2 Millisecond | Letter Length 6: Present Reaction Time (Millisecond) (hour 0 (before ingestion)): 841.6 ± 254.0 Millisecond | Sternberg Mean Response Time (hour 0 (before ingestion)): 731.9 ± 163.0 | Letter Length 2: Absent Reaction Time (Millisecond) (hour 1 after ingestion): 596.7 Millisecond | Letter Length 2: Present Reaction Time (Millisecond) (hour 1 after ingestion): 516.6 Millisecond | Letter Length 4: Absent Reaction Time (Millisecond) (hour 1 after ingestion): 755.5 Millisecond | Letter Length 4: Present Reaction Time (Millisecond) (hour 1 after ingestion): 642.9 Millisecond | Letter Length 6: Absent Reaction Time (Millisecond) (hour 1 after ingestion): 986.5 Millisecond | Letter Length 6: Present Reaction Time (Millisecond) (hour 1 after ingestion): 829.7 Millisecond | Sternberg Mean Response Time (hour 1 after ingestion): 721.3 | Letter Length 2: Absent Reaction Time (Millisecond) (hour 2 after ingestion): 579.7 Millisecond | Letter Length 2: Present Reaction Time (Millisecond) (hour 2 after ingestion): 503.8 Millisecond | Letter Length 4: Absent Reaction Time (Millisecond) (hour 2 after ingestion): 758.4 Millisecond | Letter Length 4: Present Reaction Time (Millisecond) (hour 2 after ingestion): 614.7 Millisecond | Letter Length 6: Absent Reaction Time (Millisecond) (hour 2 after ingestion): 1,011.3 Millisecond | Letter Length 6: Present Reaction Time (Millisecond) (hour 2 after ingestion): 800.0 Millisecond | Sternberg Mean Response Time (hour 2 after ingestion): 711.3 | letter length 2 absent reaction time (FIG. 15) (hour 3, 4 and 5): trend towards improved reaction times | Letter Length 2: Absent Reaction Time (Millisecond) (hour 3 after ingestion): 559.3 Millisecond | Letter Length 2: Present Reaction Time (Millisecond) (hour 3 after ingestion): 497.1 Millisecond | Letter Length 4: Absent Reaction Time (Millisecond) (hour 3 after ingestion): 762.3 Millisecond | Letter Length 4: Present Reaction Time (Millisecond) (hour 3 after ingestion): 634.6 Millisecond | Letter Length 6: Absent Reaction Time (Millisecond) (hour 3 after ingestion): 980.9 Millisecond | Letter Length 6: Present Reaction Time (Millisecond) (hour 3 after ingestion): 830.6 Millisecond | Sternberg Mean Response Time (hour 3 after ingestion): 710.8 | Letter Length 2: Absent Reaction Time (Millisecond) (hour 4 after ingestion): 553.8 Millisecond | Letter Length 2: Present Reaction Time (Millisecond) (hour 4 after ingestion): 488.3 Millisecond | Letter Length 4: Absent Reaction Time (Millisecond) (hour 4 after ingestion): 701.3 Millisecond | Letter Length 4: Present Reaction Time (Millisecond) (hour 4 after ingestion): 598.2 Millisecond | Letter Length 6: Absent Reaction Time (Millisecond) (hour 4 after ingestion): 914.8 Millisecond | Letter Length 6: Present Reaction Time (Millisecond) (hour 4 after ingestion): 778.1 Millisecond | Sternberg Mean Response Time (hour 4 after ingestion): 672.4 | Letter Length 2: Absent Reaction Time (Millisecond) (hour 5 after ingestion): 558.8 Millisecond | Letter Length 2: Present Reaction Time (Millisecond) (hour 5 after ingestion): 490.3 Millisecond | Letter Length 4: Absent Reaction Time (Millisecond) (hour 5 after ingestion): 717.5 Millisecond | Letter Length 4: Present Reaction Time (Millisecond) (hour 5 after ingestion): 617.1 Millisecond | Letter Length 6: Absent Reaction Time (Millisecond) (hour 5 after ingestion): 913.5 Millisecond | Letter Length 6: Present Reaction Time (Millisecond) (hour 5 after ingestion): 761.8 Millisecond | Sternberg Mean Response Time (hour 5 after ingestion): 676.5 | Letter Length 2: Absent Reaction Time (Millisecond) (hour 6 after ingestion): 568.9 Millisecond | Letter Length 2: Present Reaction Time (Millisecond) (hour 6 after ingestion): 483.8 Millisecond | Letter Length 4: Absent Reaction Time (Millisecond) (hour 6 after ingestion): 742.2 Millisecond | Letter Length 4: Present Reaction Time (Millisecond) (hour 6 after ingestion): 590.3 Millisecond | Letter Length 6: Absent Reaction Time (Millisecond) (hour 6 after ingestion): 970.7 Millisecond | Letter Length 6: Present Reaction Time (Millisecond) (hour 6 after ingestion): 816.4 Millisecond | Sternberg Mean Response Time (hour 6 after ingestion): 695.4 | letter length 6 present reaction time (FIG. 20) (hours 4 and 5): improved present reaction time | decrease of mean response times in the Sternberg Test compared to baseline (overall, vs baseline): 3.9%
